# Assay results taken from patent publication US10526327B2, “Histone demethylase inhibitors” (CELGENE QUANTICEL RESEARCH, INC., priority 2013, dated 2020).
# Tested on: KDM5A/B
# Assay: In vitro cell-based assay: immuno-blot quantification of tri-methyl H3K4 in ZR-75-1 breast cancer cells
# Conditions: 72 hours, tri-methyl H3K4 level relative to GAPDH, percent of DMSO, read-out: Cellular IC50
# Procedure, shortened: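 ZR-75-1 breast cancer cells treated 72 h with 11-point compound dilutions (1250 μM to 10 nM). H3K4me3 quantified by infrared immunoblot densitometry, normalized to GAPDH and expressed as percent of DMSO control; relative IC50 from curve fit.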
row,IC50,SMILES
1,> 10000 nM,"CCOc1nc(O)c2ccncc2n1 [Example 2, 2-ethoxypyrido[3,4-d]pyrimidin-4-ol]"
2,> 10000 nM,"Oc1nc(Oc2ccccc2)nc2cnccc12 [Example 34, 2-phenoxypyrido[3,4-d]pyrimidin-4-ol]"

row,SMILES,IC50
1,"CC(C)(O)CCOc1nc(O)c2ccncc2n1 [Example 24, 2-(3-hydroxy-3-methylbutoxy)pyrido[3,4-d]pyrimidin-4-ol]",> 10000 nM

# Target: T1, JMJD2C (Homo sapiens, UniProt Q9H3R0)
# T1 construct: purchased BPS Bioscience 50105
# T1 sequence (Q9H3R0 2-372): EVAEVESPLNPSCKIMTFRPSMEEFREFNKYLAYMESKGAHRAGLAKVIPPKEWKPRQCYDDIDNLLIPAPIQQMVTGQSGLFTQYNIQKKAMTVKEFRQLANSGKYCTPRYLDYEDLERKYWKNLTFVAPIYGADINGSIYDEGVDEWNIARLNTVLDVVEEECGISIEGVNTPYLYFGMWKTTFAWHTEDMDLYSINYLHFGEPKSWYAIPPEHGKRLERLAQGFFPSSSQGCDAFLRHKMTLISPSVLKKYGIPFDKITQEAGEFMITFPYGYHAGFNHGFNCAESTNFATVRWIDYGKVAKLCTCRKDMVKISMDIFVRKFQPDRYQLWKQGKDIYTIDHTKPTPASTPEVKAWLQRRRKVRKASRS
# Assay: JMJD2C in vitro enzyme inhibition assay (TR-FRET)
# Type: biochemical
# Conditions: not given
# Procedure, shortened: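 Baculovirus-expressed human JMJD2C (AA 2-372) at 0.3 nM demethylated 300 nM biotin-H3K9me3 peptide with 2 μM alpha-ketoglutarate in HEPES pH 7.3 containing ascorbate and Fe(II), 30 min at room temperature. EDTA-stopped product was read by TR-FRET with Eu-anti-H3K9me2 and streptavidin-APC; 665/615 ratios from 11-point dilutions gave IC50.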
row,SMILES,IC50
1,"CC(C)Oc1nc(O)c2ccncc2n1 [Example 1, 2-propan-2-yloxy-3H-pyrido[3,4-d]pyrimidin-4-one]",100 to 1000 nM
2,"CCOc1nc(O)c2ccncc2n1 [Example 2, 2-ethoxypyrido[3,4-d]pyrimidin-4-ol]",100 to 1000 nM
3,"Oc1nc(OCCOCC(F)(F)F)nc2cnccc12 [Example 23, 2-[2-(2,2,2-trifluoroethoxy)ethoxy]pyrido[3,4-d]pyrimidin-4-ol]",100 to 1000 nM
4,"CC(C)(O)CCOc1nc(O)c2ccncc2n1 [Example 24, 2-(3-hydroxy-3-methylbutoxy)pyrido[3,4-d]pyrimidin-4-ol]",100 to 1000 nM
5,"CC(CO)COc1nc(O)c2ccncc2n1 (stereo not drawn) [Example 25, 2-(3-hydroxy-2-methylpropoxy)pyrido[3,4-d]pyrimidin-4-ol]",100 to 1000 nM
6,"Oc1nc(OCC2CCCO2)nc2cnccc12 (stereo not drawn) [Example 26, 2-(oxolan-2-ylmethoxy)pyrido[3,4-d]pyrimidin-4-ol]",100 to 1000 nM
7,"Oc1nc(OCC2CCOC2)nc2cnccc12 (stereo not drawn) [Example 27, 2-(oxolan-3-ylmethoxy)pyrido[3,4-d]pyrimidin-4-ol]",100 to 1000 nM
8,"CC(=O)N(C)CCOc1nc(O)c2ccncc2n1 [Example 28, N-[2-(4-hydroxypyrido[3,4-d]pyrimidin-2-yl)oxyethyl]-N-methylacetamide]",100 to 1000 nM
9,"CC(C)OCCOc1nc(O)c2ccncc2n1 [Example 29, 2-(2-propan-2-yloxyethoxy)pyrido[3,4-d]pyrimidin-4-ol]",100 to 1000 nM
10,"Oc1nc(OCCOCc2ccccc2)nc2cnccc12 [Example 30, 2-(2-phenylmethoxyethoxy)pyrido[3,4-d]pyrimidin-4-ol]",100 to 1000 nM
11,"O=C(NCCOc1nc(O)c2ccncc2n1)c1ccccc1 [Example 31, N-[2-(4-hydroxypyrido[3,4-d]pyrimidin-2-yl)oxyethyl]benzamide]",100 to 1000 nM
12,"N#Cc1cccc(COc2nc(O)c3ccncc3n2)c1 [Example 32, 3-[(4-hydroxypyrido[3,4-d]pyrimidin-2-yl)oxymethyl]benzonitrile]",100 to 1000 nM
13,"Cn1ccc(COc2nc(O)c3ccncc3n2)n1 [Example 33, 2-[(1-methylpyrazol-3-yl)methoxy]pyrido[3,4-d]pyrimidin-4-ol]",≤ 100 nM
14,"Oc1nc(Oc2ccccc2)nc2cnccc12 [Example 34, 2-phenoxypyrido[3,4-d]pyrimidin-4-ol]",100 to 1000 nM
15,"Oc1nc(OCc2ccccc2C(F)(F)F)nc2cnccc12 [Example 177, 2-{[2-(trifluoromethyl)phenyl]methoxy}pyrido[3,4-d]pyrimidin-4-ol]",≤ 100 nM

# The remaining lines, values ahead:
row,IC50,SMILES
1,≤ 100 nM,"Oc1nc(OCc2ccccc2F)nc2cnccc12 [Example 178, 2-[(2-fluorophenyl)methoxy]pyrido[3,4-d]pyrimidin-4-ol]"
2,≤ 100 nM,"Oc1nc(OCc2cccc(F)c2)nc2cnccc12 [Example 179, 2-[(3-fluorophenyl)methoxy]pyrido[3,4-d]pyrimidin-4-ol]"
3,≤ 100 nM,"Oc1nc(OCc2ccc(F)cc2)nc2cnccc12 [Example 180, 2-[(4-fluorophenyl)methoxy]pyrido[3,4-d]pyrimidin-4-ol]"
4,≤ 100 nM,"Oc1nc(OCc2cccc(F)c2F)nc2cnccc12 [Example 181, 2-[(2,3-difluorophenyl)methoxy]pyrido[3,4-d]pyrimidin-4-ol]"
5,≤ 100 nM,"Oc1nc(OCc2cc(F)ccc2F)nc2cnccc12 [Example 182, 2-[(2,5-difluorophenyl)methoxy]pyrido[3,4-d]pyrimidin-4-ol]"
6,100 to 1000 nM,"Oc1nc(OCc2c(F)cccc2F)nc2cnccc12 [Example 183, 2-[(2,6-difluorophenyl)methoxy]pyrido[3,4-d]pyrimidin-4-ol]"
7,100 to 1000 nM,"Oc1nc(OCc2cccc3ccccc23)nc2cnccc12 [Example 184, 2-(naphthalen-1-ylmethoxy)pyrido[3,4-d]pyrimidin-4-ol]"
8,100 to 1000 nM,"Oc1nc(OCc2ccccc2-c2ccccc2)nc2cnccc12 [Example 185, 2-[(2-phenylphenyl)methoxy]pyrido[3,4-d]pyrimidin-4-ol]"
9,100 to 1000 nM,"Oc1nc(OCc2cccc(-c3ccccc3)c2)nc2cnccc12 [Example 186, 2-[(3-phenylphenyl)methoxy]pyrido[3,4-d]pyrimidin-4-ol]"
10,1000 to 10000 nM,"Oc1nc(OCc2ccc3ccccc3c2)nc2cnccc12 [Example 187, 2-(naphthalen-2-ylmethoxy)pyrido[3,4-d]pyrimidin-4-ol]"
11,≤ 100 nM,"Oc1nc(OCC2CCCc3ccccc32)nc2cnccc12 (stereo not drawn) [Example 188, 2-(1,2,3,4-tetrahydronaphthalen-1-ylmethoxy)pyrido[3,4-d]pyrimidin-4-ol]"
12,≤ 100 nM,"Oc1nc(OC2Cc3ccccc3C2)nc2cnccc12 [Example 189, 2-(2,3-dihydro-1H-inden-2-yloxy)pyrido[3,4-d]pyrimidin-4-ol]"
13,≤ 100 nM,"Oc1nc(OCC2CCc3ccccc32)nc2cnccc12 (stereo not drawn) [Example 190, 2-(2,3-dihydro-1H-inden-1-ylmethoxy)pyrido[3,4-d]pyrimidin-4-ol]"
14,≤ 100 nM,"Oc1nc(OCC2CCc3ccccc3C2)nc2cnccc12 (stereo not drawn) [Example 191, 2-(1,2,3,4-tetrahydronaphthalen-2-ylmethoxy)pyrido[3,4-d]pyrimidin-4-ol]"
15,1000 to 10000 nM,"Oc1nc(OC2CCc3ccccc32)nc2cnccc12 (stereo not drawn) [Example 192, 2-(2,3-dihydro-1H-inden-1-yloxy)pyrido[3,4-d]pyrimidin-4-ol]"
16,≤ 100 nM,"Oc1nc(OCc2coc3ccccc23)nc2cnccc12 [Example 193, 2-(1-benzofuran-3-ylmethoxy)pyrido[3,4-d]pyrimidin-4-ol]"
17,1000 to 10000 nM,"Oc1nc(OCC2COc3ccccc32)nc2cnccc12 (stereo not drawn) [Example 194, 2-(2,3-dihydro-1-benzofuran-3-ylmethoxy)pyrido[3,4-d]pyrimidin-4-ol]"
18,≤ 100 nM,"Oc1nc(OCC2CCOc3ccccc32)nc2cnccc12 (stereo not drawn) [Example 195, 2-(3,4-dihydro-2H-1-benzopyran-4-ylmethoxy)pyrido[3,4-d]pyrimidin-4-ol]"
19,1000 to 10000 nM,"Oc1nc(OC2CCCc3ccccc32)nc2cnccc12 (stereo not drawn) [Example 196, 2-(1,2,3,4-tetrahydronaphthalen-1-yloxy)pyrido[3,4-d]pyrimidin-4-ol]"
20,≤ 100 nM,"Oc1nc(OC2CCOc3ccccc32)nc2cnccc12 (stereo not drawn) [Example 197, 2-(3,4-dihydro-2H-1-benzopyran-4-yloxy)pyrido[3,4-d]pyrimidin-4-ol]"
21,100 to 1000 nM,"Cn1cnc(-c2nccc3c(=O)[nH]cnc23)c1 [Example 198, 8-(1-methylimidazol-4-yl)-3H-pyrido[3,4-d]pyrimidin-4-one]"
